Data from PubChem BioAssay (NCI).
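96-well plates; 48 h exposure; 5 concentrations. Endpoints by linear interpolation between flanking doses. Not reached: highest tested concentration assigned. TGI denotes the concentration required for complete inhibition of growth.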

Assays:
Test in all cases: DTP human tumour cell line panel, 48 h
MOLT-4 leukemia = tested on: MOLT-4 leukemia
M14 melanoma = tested on: M14 melanoma
CCRF-CEM leukemia = tested on: CCRF-CEM leukemia
UO-31 renal = tested on: UO-31 renal
T-47D breast = tested on: T-47D breast
SNB-75 CNS = tested on: SNB-75 CNS
SK-MEL-2 melanoma = tested on: SK-MEL-2 melanoma
SF-539 CNS = tested on: SF-539 CNS
LOX IMVI melanoma = tested on: LOX IMVI melanoma
SK-OV-3 ovarian = tested on: SK-OV-3 ovarian

SMILES: CC(C)(C)OC(=O)NC(CCCCNC(=O)OCc1ccccc1)C(=O)NC(CCCCNC(=O)OCc1ccccc1)C(=O)ON1C(=O)CCC1=O (stereo unspecified)
- TGI (MOLT-4 leukemia): > 100 µM
- TGI (M14 melanoma): > 100 µM
- TGI (CCRF-CEM leukemia): > 100 µM
- TGI (UO-31 renal): > 100 µM
- TGI (T-47D breast): > 100 µM
- TGI (SNB-75 CNS): > 100 µM
- TGI (SK-MEL-2 melanoma): > 100 µM

SMILES: CC(=O)Oc1ccc(OC(Oc2ccccc2)c2ccccc2)cc1 (stereo unspecified)
- TGI (MOLT-4 leukemia): > 100 µM
- TGI (M14 melanoma): 32.1 µM
- TGI (CCRF-CEM leukemia): 72.2 µM
- TGI (UO-31 renal): 88.9 µM
- TGI (T-47D breast): > 100 µM
- TGI (SNB-75 CNS): 64.4 µM
- TGI (SF-539 CNS): 49.8 µM
- TGI (LOX IMVI melanoma): 52.6 µM
- TGI (SK-OV-3 ovarian): > 100 µM

SMILES: ClCc1c(-c2ccccc2)nn(-c2ccccc2)c1CCl
- TGI (M14 melanoma): 35.5 µM
- TGI (UO-31 renal): 45 µM
- TGI (T-47D breast): 5.96 µM
- TGI (SNB-75 CNS): 16.7 µM
- TGI (SF-539 CNS): 33.1 µM
- TGI (SK-MEL-2 melanoma): 26.5 µM

SMILES: CC1CCC2c3c([nH]c4ccccc34)C3C(=O)N(C4CCCCC4)C(=O)C3C2C1 (stereo unspecified)
- TGI (M14 melanoma): 59.3 µM
- TGI (CCRF-CEM leukemia): > 100 µM
- TGI (UO-31 renal): 37.2 µM
- TGI (SNB-75 CNS): 8.51 µM
- TGI (SF-539 CNS): 62.6 µM
- TGI (LOX IMVI melanoma): > 100 µM
- TGI (SK-OV-3 ovarian): 42.5 µM
- TGI (SK-MEL-2 melanoma): 40.3 µM

SMILES: C1OCN2c3nonc3N3COCN4c5nonc5N1C2C43 (stereo unspecified)
- TGI (MOLT-4 leukemia): > 100 µM
- TGI (M14 melanoma): > 100 µM
- TGI (CCRF-CEM leukemia): > 100 µM
- TGI (UO-31 renal): > 100 µM
- TGI (T-47D breast): > 100 µM
- TGI (SNB-75 CNS): > 100 µM
- TGI (SF-539 CNS): > 100 µM
- TGI (SK-OV-3 ovarian): > 100 µM
- TGI (SK-MEL-2 melanoma): > 100 µM

SMILES: CC(=O)OCC1OC(OCC2OC(N3C(=S)N[C@H]([C@@H](O)[C@H](O)[C@H](O)CO)[C@H]3O)C(OC(C)=O)C(OC(C)=O)C2OC(C)=O)C(OC(C)=O)C(OC(C)=O)C1OC(C)=O (stereo partly specified)
- TGI (MOLT-4 leukemia): > 100 µM
- TGI (M14 melanoma): > 100 µM
- TGI (UO-31 renal): > 100 µM
- TGI (T-47D breast): > 100 µM
- TGI (SF-539 CNS): > 100 µM
- TGI (SK-OV-3 ovarian): > 100 µM
- TGI (SK-MEL-2 melanoma): > 100 µM

SMILES: O=C1C[C@H](c2ccccc2)C2(C(=O)c3ccccc3C2=O)[C@@H](c2ccccc2)C1
- TGI (MOLT-4 leukemia): > 100 µM
- TGI (M14 melanoma): 95.9 µM
- TGI (CCRF-CEM leukemia): > 100 µM
- TGI (UO-31 renal): > 100 µM
- TGI (T-47D breast): > 100 µM
- TGI (SNB-75 CNS): > 100 µM
- TGI (SK-OV-3 ovarian): > 100 µM
- TGI (SK-MEL-2 melanoma): 69.3 µM

SMILES: CC(/C=N/NC1=NCCCCN1)=N\NC1=NCCCCN1
- TGI (MOLT-4 leukemia): > 100 µM
- TGI (M14 melanoma): 38.7 µM
- TGI (CCRF-CEM leukemia): > 100 µM
- TGI (UO-31 renal): > 100 µM
- TGI (T-47D breast): > 100 µM
- TGI (SNB-75 CNS): > 100 µM
- TGI (SF-539 CNS): > 100 µM
- TGI (LOX IMVI melanoma): > 100 µM
- TGI (SK-OV-3 ovarian): > 100 µM

SMILES: CC(=O)c1ccc(NC(=O)/C(=N\NC(N)=O)C(C#N)CC(C)(C)C=O)cc1 (stereo unspecified)
- TGI (MOLT-4 leukemia): > 100 µM
- TGI (M14 melanoma): > 100 µM
- TGI (CCRF-CEM leukemia): > 100 µM
- TGI (UO-31 renal): > 100 µM
- TGI (SNB-75 CNS): > 100 µM
- TGI (SF-539 CNS): > 100 µM
- TGI (LOX IMVI melanoma): > 100 µM
- TGI (SK-OV-3 ovarian): > 100 µM
- TGI (SK-MEL-2 melanoma): > 100 µM

SMILES: C[C@]12CCC(=O)C=C1CC[C@@H]1[C@@H]2C(=O)C[C@@]2(C)[C@H]1CC[C@]2(O)C(=O)CO
- TGI (MOLT-4 leukemia): > 100 µM
- TGI (M14 melanoma): > 100 µM
- TGI (CCRF-CEM leukemia): > 100 µM
- TGI (UO-31 renal): > 100 µM
- TGI (SNB-75 CNS): > 100 µM
- TGI (SF-539 CNS): > 100 µM
- TGI (SK-OV-3 ovarian): > 100 µM
- TGI (SK-MEL-2 melanoma): > 100 µM

SMILES: O=C(NCCO)c1c(O)c2ccccc2[nH]c1=O
- TGI (MOLT-4 leukemia): > 100 µM
- TGI (CCRF-CEM leukemia): > 100 µM
- TGI (UO-31 renal): > 100 µM
- TGI (SNB-75 CNS): > 100 µM
- TGI (SF-539 CNS): > 100 µM
- TGI (LOX IMVI melanoma): > 100 µM

SMILES: COC(=O)c1ccc(C)cc1C1CN=NC12Cc1cc(C)c(C)cc1C2=O (stereo unspecified)
- TGI (MOLT-4 leukemia): 93 µM
- TGI (M14 melanoma): > 100 µM
- TGI (CCRF-CEM leukemia): > 100 µM
- TGI (UO-31 renal): > 100 µM
- TGI (SNB-75 CNS): > 100 µM
- TGI (SF-539 CNS): > 100 µM
- TGI (LOX IMVI melanoma): > 100 µM

SMILES: CC1NOC(NS(=O)(=O)c2ccc(N=Nc3c(O)c(C(=O)O)cc4ccccc34)cc2)C1C (stereo unspecified)
- TGI (MOLT-4 leukemia): > 100 µM
- TGI (M14 melanoma): > 100 µM
- TGI (CCRF-CEM leukemia): > 100 µM
- TGI (UO-31 renal): > 100 µM
- TGI (SNB-75 CNS): > 100 µM
- TGI (SF-539 CNS): > 100 µM
- TGI (SK-OV-3 ovarian): > 100 µM
- TGI (SK-MEL-2 melanoma): > 100 µM

SMILES: COc1ccc(C2C(C(=O)O)=C(COC(C)=O)Oc3cc4c(cc32)OCO4)cc1 (stereo unspecified)
- TGI (MOLT-4 leukemia): > 100 µM
- TGI (M14 melanoma): > 100 µM
- TGI (CCRF-CEM leukemia): > 100 µM
- TGI (UO-31 renal): > 100 µM
- TGI (SNB-75 CNS): > 100 µM
- TGI (LOX IMVI melanoma): > 100 µM
- TGI (SK-OV-3 ovarian): > 100 µM

SMILES: Cc1ccc(NC(=O)c2cccc([N+](=O)[O-])c2O)c(C)c1
- TGI (MOLT-4 leukemia): > 100 µM
- TGI (M14 melanoma): > 100 µM
- TGI (CCRF-CEM leukemia): > 100 µM
- TGI (UO-31 renal): 35.1 µM
- TGI (SNB-75 CNS): > 100 µM
- TGI (SF-539 CNS): 89.6 µM
- TGI (LOX IMVI melanoma): > 100 µM
- TGI (SK-OV-3 ovarian): > 100 µM
- TGI (SK-MEL-2 melanoma): > 100 µM

SMILES: CC[C@@]1(O)C(=O)OCc2c1cc1n(c2=O)Cc2c-1nc1ccccc1c2/C=N\NC(=O)C(N)CS (stereo partly specified)
- TGI (MOLT-4 leukemia): 2.07 µM
- TGI (M14 melanoma): 10.5 µM
- TGI (UO-31 renal): 14.7 µM
- TGI (SNB-75 CNS): 14 µM
- TGI (SF-539 CNS): 0.806 µM
- TGI (LOX IMVI melanoma): 13.4 µM
- TGI (SK-OV-3 ovarian): > 100 µM
- TGI (SK-MEL-2 melanoma): > 100 µM

SMILES: C=C1C(=O)[C@]23[C@H](O)[C@H]1CC[C@H]2[C@@]12CO[C@@]3(O)C[C@@H]1C(C)(C)CC[C@@H]2O
- TGI (MOLT-4 leukemia): > 25 µM
- TGI (CCRF-CEM leukemia): > 25 µM
- TGI (UO-31 renal): > 25 µM
- TGI (SNB-75 CNS): > 25 µM
- TGI (SF-539 CNS): 16.7 µM
- TGI (LOX IMVI melanoma): 13.9 µM

SMILES: CN(N)C(=O)NCCCl
- TGI (MOLT-4 leukemia): > 100 µM
- TGI (M14 melanoma): > 100 µM
- TGI (CCRF-CEM leukemia): > 100 µM
- TGI (UO-31 renal): > 100 µM
- TGI (SNB-75 CNS): > 100 µM
- TGI (SF-539 CNS): > 100 µM
- TGI (LOX IMVI melanoma): > 100 µM
- TGI (SK-OV-3 ovarian): > 100 µM
- TGI (SK-MEL-2 melanoma): > 100 µM

SMILES: O=c1[nH]c(=O)n(C2CC(O)C(CO)O2)cc1NN=NCc1ccccc1 (stereo unspecified)
- TGI (MOLT-4 leukemia): > 100 µM
- TGI (M14 melanoma): > 100 µM
- TGI (CCRF-CEM leukemia): > 100 µM
- TGI (UO-31 renal): > 100 µM
- TGI (T-47D breast): > 100 µM
- TGI (SNB-75 CNS): > 100 µM
- TGI (LOX IMVI melanoma): > 100 µM
- TGI (SK-OV-3 ovarian): > 100 µM

SMILES: CC(O)(c1ccccc1)c1nccc2ccccc12 (stereo unspecified)
- TGI (MOLT-4 leukemia): > 100 µM
- TGI (M14 melanoma): > 100 µM
- TGI (CCRF-CEM leukemia): > 100 µM
- TGI (UO-31 renal): > 100 µM
- TGI (T-47D breast): > 100 µM
- TGI (SNB-75 CNS): > 100 µM
- TGI (LOX IMVI melanoma): > 100 µM
- TGI (SK-OV-3 ovarian): > 100 µM
